The results in this text go back to patent publication US20250099596A1, “TETRAHYDRONAPHTHALENE COMPOUND, AND PREPARATION METHOD THEREFOR AND USE THEREOF IN MEDICINE” (Jiangsu Hengrui Pharmaceuticals Co., Ltd., priority 2021, published 2025).

≈ marks a conversion by molar mass, not a printed value. Read-outs that look alike come from different tables or passages of the source.

In data set [1] the test system is MCF7/ERα Y537S cells. Put plainly: Inhibitory activity on proliferation of ERα mutant-expressing MCF7 cells. It counts as cell-based. To be noted: Homo sapiens, 144 h, 6 days incubation, CellTiter-Glo, read-out: IC50 (nM), inhibition of proliferation of ERα mutant-expressing MCF7 cells. The gist of the method:
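MCF7 cells stably expressing ERα Y537S (lentiviral) were seeded in 2% FBS medium and exposed for 6 days at 37 °C to 9 concentrations (4-fold dilution from 1000 nM, 0.5% DMSO control). Viability read by CellTiter-Glo luminescence; IC50 calculated from concentration–signal data.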
(In ATP-based viability assays light output follows the ATP content of the culture.)

Data set [2] in a line: Pharmacokinetic evaluation, SD rat test. It counts as in vivo. The note with it: SD rats; for AUC(0-t): read-out: Area under curve AUC0-t; for half-life: read-out: Half-life T1/2 (converted); for Cmax: read-out: Plasma concentration Cmax. The procedure:
With SD rats as test animals, the plasma concentration of the compound of Example 26-1 was determined by LC/MS/MS at different time points after intragastric (i.g.)/intravenous (i.v.) administration to SD rats. The pharmacokinetic behavior of the compound of the present disclosure in SD rats was studied and its pharmacokinetic profile was evaluated.
Eight SD rats, of which half were male and half female, were evenly divided into 2 groups. The rats were provided by Zhejiang Vital River Laboratory Animal Technology Co., Ltd. The 2 groups were fasted overnight and then dosed intragastrically and intravenously, respectively.
An appropriate amount of the compound of Example 26-1 was weighed out and mixed with 5% EtOH+95% (a 15% solution of polyethylene glycol 15-hydroxystearate prepared in a 5% aqueous solution of glucose) to make a 0.2 mg/mL colorless clear solution (for the intragastric administration group) and a 0.2 mg/mL colorless clear solution (for the intravenous administration group).
The intragastric administration group: the dose was 2.0 mg/kg, and the volume was 10.0 mL/kg.
The intravenous administration group: the dose was 1.0 mg/kg, and the volume was 5.0 mL/kg.
The intragastric administration group: Blood (0.2 mL) was collected from the orbit into EDTA-K2 anticoagulation tubes before administration and 0.25 h, 0.5 h, 1.0 h, 2.0 h, 4.0 h, 6.0 h, 8.0 h, 11.0 h and 24.0 h after administration and centrifuged at 10,000 rpm for 1 min (4° C.). The plasma was separated within 1 h and stored at −20° C. before analysis. The process from blood collection to centrifugation was performed in an ice bath. Two hours after administration, feeding was resumed.
The intravenous administration group: Blood was collected before administration and 5 min, 15 min, 0.5 h, 1.0 h, 2.0 h, 4.0 h, 8.0 h, 11.0 h and 24 h after administration and processed as in the intragastric administration group.
The plasma concentration of the test compound was determined after administration of different concentrations of the test compound to SD rats: plasma samples (25 μL) were collected from SD rats at various time points after administration, and 50 μL of camptothecin (100 ng/mL) was added to each of the samples; proteins were precipitated with 200 μL of acetonitrile; the mixtures were vortexed for 5 min and centrifuged at 4000 rpm for 10 min. 1 μL of supernatant was collected for LC/MS/MS analysis.

A short description of data set [3]: Solubility in FassIF and FessIF solution. It is filed as physicochemical. To be noted: thermodynamic from solid. The procedure:
Solution (A): 4.441 g of NaH2PO4·2H2O, 0.348 g of NaOH granules and 6.186 g of NaCl were added to 900 mL of ultrapure water and well mixed, and the solution was adjusted to pH 6.5±0.05 with 1 M NaOH, brought to volume (1000 mL) with water, and stored at 4° C. for future use.
FaSSIF solution (B): 0.161 g of sodium taurocholate (NaTC) and 59 mg of lecithin were dissolved in 20 mL of solution (A). The resulting solution was vigorously stirred overnight to form a clear micellar solution, and solution (A) was added to make a volume of 100 mL. The resulting solution was stored at 4° C. for future use (not more than 2 weeks).
Solution (A): 20.2 g of NaOH granules, 43.25 g of acetic acid and 59.37 g of sodium chloride were precisely weighed out and dissolved in a proper amount of ultrapure water. The solution was brought to volume (5 L), adjusted to pH 5.0 with 1 M NaOH or 1 M HCl, and stored at 4° C. for future use.
FeSSIF solution (B): 0.80652 g of sodium taurocholate (NaTC) and 295.5 mg of lecithin were dissolved in 25 mL of solution (A). […]
3.1. […] 10 μL of the stock solution (concentration 10 mM, dissolved in DMSO) was precisely measured out and well mixed with 990 μL of an organic solvent mixture (usually DMSO:acetonitrile:ethanol=1:1:1) in a 2 mL sample flask to obtain a 100 μM clear sample solution as a reference solution. […]

The mark [4] stands for this setting: both sexes, rat, plasma, iv, i.v., 1.0 mg/kg.
Where [5] appears, read: both sexes, rat, plasma, po, i.g., 2.0 mg/kg.

In general, solubility refers to the dissolved amount per volume that the medium holds. Regarding `CC(C)C[C@H]1CCc2cc(O)ccc2[C@H]1c1ccc(N2CCC(CN3CCN(c4ccc5c(c4)CN([C@H]4CCC(=O)NC4=O)C5=O)CC3)CC2)cc1` [Example 26-1, (S)-3-(5-(4-((1-(4-((1R,2R)-6-Hydroxy-2-isobutyl-1,2,3,4-tetrahydronaphthalen-1-yl)phenyl)piperidin-4-yl)methyl)piperazin-1-yl)-1-oxoisoindolin-2-yl)piperidine-2,6-dione], the IC50 in data set [1] turned out to be 1.67 nM. The “Clearance CL/F” value in data set [2] (i.v., 1.0 mg/kg) is recorded as 6.4 mL/min/kg. In addition, in data set [2] (setting [4]), the AUC(0-t) turned out to be 2640 ng·h/mL, the half-life was 4.8 h and the Cmax stood at 4040 ng/mL. Moreover, the Vd/F in data set [2] (both sexes, rat, plasma, po, i.g., 2.0 mg/kg, read-out: Apparent distribution volume Vz/F) was found to be 38.5 L/kg. Also, in data set [2] (setting [5]), the AUC(0-t) was determined as 302 ng·h/mL, the half-life was 4.4 h and the Cmax was found to be 32.9 ng/mL. The CL/F in data set [2] (both sexes, rat, plasma, po, i.g., 2.0 mg/kg, read-out: Clearance CL/F) is 102 mL/min/kg. The solubility at 24 h in data set [3] (FassIF solution pH 6.5, 37° C., read-out: Solubility in FassIF solution) stood at 97 µM (≈ 68.3 µg/mL). The solubility at 24 h in data set [3] (FessIF solution pH 5.0, 37° C., read-out: Solubility in FessIF solution) turned out to be 553 µM (≈ 389 µg/mL).
